22 compounds from ChEMBL document CHEMBL1121978, “Ultra-short-acting beta-adrenergic receptor blocking agents. 2. (Aryloxy)propanolamines containing esters on the aryl function” (J Med Chem, 1982) can be followed below.

For experiment [1], the target named is Beta-1 adrenergic receptor (Canis lupus familiaris) (UniProt P79148).
The target in experiment [2] is Beta-1 adrenergic receptor (Cavia porcellus) (UniProt B0FL73). Briefly: Cardioselectivity expressed as antilog of pA2 (atria)-pA2 (trachea).
Chain of Beta-1 adrenergic receptor (Cavia porcellus) (B0FL73 1-467): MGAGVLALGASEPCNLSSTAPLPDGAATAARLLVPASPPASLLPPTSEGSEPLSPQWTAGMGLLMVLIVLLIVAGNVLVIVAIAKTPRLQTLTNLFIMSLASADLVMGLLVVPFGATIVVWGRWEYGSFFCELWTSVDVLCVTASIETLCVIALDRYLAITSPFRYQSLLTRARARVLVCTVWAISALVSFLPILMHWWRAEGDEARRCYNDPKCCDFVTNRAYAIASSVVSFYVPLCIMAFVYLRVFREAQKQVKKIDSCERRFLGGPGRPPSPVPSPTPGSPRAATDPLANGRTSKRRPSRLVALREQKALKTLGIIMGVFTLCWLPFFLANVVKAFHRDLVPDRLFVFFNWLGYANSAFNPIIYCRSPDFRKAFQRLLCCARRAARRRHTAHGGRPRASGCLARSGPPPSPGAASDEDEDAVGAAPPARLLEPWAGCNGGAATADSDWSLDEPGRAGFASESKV
Experiment [3] addresses Beta-1 adrenergic receptor (Canis lupus familiaris) (UniProt P79148). The source holds these as a separate data set.
Experiment [4] deals with Beta-1 adrenergic receptor (Cavia porcellus) (UniProt B0FL73).
Description: The compound was tested in vivo for its ability to block beta-1-adrenergic receptor in guinea pig right atria preparation at a duration of 3h
The target in experiment [5] is Beta-1 adrenergic receptor (Cavia porcellus, UniProt B0FL73). Briefly: The compound was tested in vitro for its ability to block Beta-1 adrenergic receptor in guinea pig right atria preparation. Particulars: read-out: pA2 (converted).
Chain of Beta-1 adrenergic receptor (B0FL73 whole entry): as the sequence (B0FL73 1-467) above
Experiment [6] deals with Beta-1 adrenergic receptor (Cavia porcellus) (UniProt B0FL73). Briefly: The compound was tested in vitro for its ability to block Beta-1 adrenergic receptor in guinea pig right atria preparation at 10e-5M; inactive.

Calls of active or inactive are those of the source. No cut-off for these calls is given here.

For `COC(=O)CCCc1ccc(OCC(O)CNC(C)C)cc1` (stereo not drawn), the In vivo duration was > 60 min in experiment [1] and 40 min in experiment [3]. In addition, the Cardio selectivity in experiment [2] amounted to 13.

Turning to `C=COC(=O)c1cccc(OCC(O)CNC(C)C)c1` (stereo not drawn), the In vivo duration in experiment [4] was > 60 min. The Kb in experiment [5] is 126 nM.

For `COC(=O)CCc1ccc(OCC(O)CNCCc2ccc(OC)c(OC)c2)cc1` (stereo not drawn), the In vivo duration in experiment [1] came out at 14 min. Also, the Cardio selectivity in experiment [2] came to 20.

Take `COC(=O)c1ccc(OCC(O)CNC(C)C)cc1` (stereo not drawn): the In vivo duration in experiment [3] worked out at 31 min.

The compound `COC(=O)CCc1ccccc1OCC(O)CNC(C)C` (stereo not drawn) yielded an In vivo duration in experiment [1] of 29 min.

On to `COC(=O)/C=C/c1ccc(OCC(O)CNC(C)C)cc1` (stereo not drawn), for which, in experiment [1], the In vivo duration was > 60 min. Moreover, the Cardio selectivity in experiment [2] was 18.

The compound `COC(=O)c1ccc(OCC(O)CNC(C)(C)C)cc1` (stereo not drawn) displayed an In vivo duration in experiment [3] of 22 min.

For `CC(C)NCC(O)COc1ccc(C(=O)O)cc1` (stereo not drawn), the pA2 result in experiment [6] is “inactive”.

In experiment [1], `CCOC(=O)CCc1ccc(OCC(O)CNC(C)C)cc1` (stereo not drawn) yielded an In vivo duration of 43 min. This compound yielded a Cardio selectivity in experiment [2] of 30.

Take `CCOC(=O)c1ccc(OCC(O)CNC(C)C)cc1` (stereo not drawn): the In vivo duration in experiment [3] stood at 56 min.

In the case of `COC(=O)CCc1ccc(OCC(O)CNCCCc2ccccc2)cc1` (stereo not drawn), in experiment [2], the Cardio selectivity was determined as 20.

Turning to `COC(=O)CCc1ccc(OCC(O)CNC(C)C)cc1` (stereo not drawn), the In vivo duration in experiment [1] and in experiment [3] was 12 min each time.

Turning to `COC(=O)c1ccccc1OCC(O)CNC(C)C` (stereo not drawn), the In vivo duration in experiment [1] and in experiment [3] was 15 min in each case.

With `COC(=O)Cc1ccc(OCC(O)CNC(C)C)cc1` (stereo not drawn), the values for the In vivo duration in experiment [1] and in experiment [3] were > 60 min and 20 min, respectively.

Consider `C=COC(=O)c1ccc(OCC(O)CNC(C)C)cc1` (stereo not drawn), for which the Kb in experiment [5] is 501 nM. This compound also displayed a Cardio selectivity in experiment [2] of 5.

`COC(=O)c1ccccc1OCC(O)CNCCc1ccc(OC)c(OC)c1` (stereo not drawn) displayed an In vivo duration in experiment [1] of 30 min.

Regarding `CCOC(=O)c1ccccc1OCC(O)CNC(C)(C)C` (stereo not drawn), in experiment [1], the In vivo duration was found to be 38 min.

Regarding `COC(=O)c1ccccc1OCC(O)CNC(C)(C)C` (stereo not drawn), the values for the In vivo duration in experiment [1] and in experiment [3] were 22 min and 12 min, respectively.

`COC(=O)CCc1ccc(OCC(O)CNC(C)(C)C)cc1` (stereo not drawn) registered an In vivo duration in experiment [1] of 15 min.

In experiment [3], `CC(=O)Nc1ccc(OCC(O)CNC(C)C)cc1` (stereo not drawn) had an In vivo duration of 61 min.

In the case of `COC(=O)c1ccccc1OCC(O)CNC(C)(C)CO` (stereo not drawn), the In vivo duration in experiment [1] stood at 55 min.

As to `C=COC(=O)c1ccccc1OCC(O)CNC(C)C` (stereo not drawn), the Kb in experiment [5] is 12.6 nM.
